Patent US20260216348A1, “IRAK DEGRADATION AGENT AND USE THEREOF” (Increland, priority 2023, published 2026)

Legend:
[1] = Metabolic stability in human liver microsome; assay type: in vitro ADME; conditions: NADPH, 60 min; for half-life at 1 µM: liver microsomes, read-out: Human liver microsome (t1/2, min)
Description: Clean incubation plates T60 and NCF60 were preheated at 37° C. for 10 min. Liver microsomes were diluted to a concentration of 0.56 mg/mL with 100 mM phosphate buffer, and 445 μL of the microsome working solution (0.56 mg/mL) was transferred to the preheated incubation plates T60 and NCF60, followed by incubation of the plates T60 and NCF60 with continuous shaking at 37° C. for 10 min. After incubation, 54 μL of liver microsomes were transferred to a blank plate, 6 μL of NAPDH cofactor was added to the blank plate, and then 180 μL of quenching solution was added to the blank plate. 5 μL of the compound working solution (100 μM) was added to the microsome-containing incubation plates T60 and NCF60, and mixed thoroughly 3 times. For plate NCF60, 50 μL of buffer was added and the system was mixed thoroughly 3 times before timing was started, and the plate was incubated with shaking at 37° C. for 60 min. For the quenching plate, 180 μL of quenching solution and 6 μL of NADPH cofactor were added, and the plate was ensured to be cooled to prevent evaporation. For the T60 plate, the mixture was thoroughly mixed 3 times, and 54 μL of the mixture was immediately transferred to the quenching plate at the time point of 0 min. Then 44 μL of the NAPDH cofactor was added to the incubation plate (T60). Timing was started, and the plate was incubated with shaking at 37° C. for 60 min. At the time points of 5, 15, 30, 45, and 60 min, 180 μL of the quenching solution was added to the quenching plate respectively, mixed once, and 60 μL of sample was continuously transferred from the plate T60 to the quenching plate at each time point. For plate NCF60, after mixing once, 60 μL of the sample was transferred from incubation plate NCF60 to the quenching plate containing quenching solution at the 60-min time point. All sampling plates were shaken for 10 min, then centrifuged at 4000 rpm at 4° C. for 20 min. 80 μL of the supernatant was transferred to 240 μL of HPLC water, and mixed using a plate shaker for 10 min. Each bioanalytical plate was sealed and shaken for 10 min before LC-MS/MS analysis.

IRAK4 = target: T1, IRAK4 (Homo sapiens, UniProt Q9NWZ3); test: IRAK4 protein degradation in THP1 cells (Western blot); assay type: cell-based; conditions: THP-1 cells, 24 h
T1 construct: Effect of the Compounds on IRAK4 Protein Degradation in THP1 Cells; endogenous in cells; host or cells: THP-1 cells
T1 sequence (Q9NWZ3 1-460): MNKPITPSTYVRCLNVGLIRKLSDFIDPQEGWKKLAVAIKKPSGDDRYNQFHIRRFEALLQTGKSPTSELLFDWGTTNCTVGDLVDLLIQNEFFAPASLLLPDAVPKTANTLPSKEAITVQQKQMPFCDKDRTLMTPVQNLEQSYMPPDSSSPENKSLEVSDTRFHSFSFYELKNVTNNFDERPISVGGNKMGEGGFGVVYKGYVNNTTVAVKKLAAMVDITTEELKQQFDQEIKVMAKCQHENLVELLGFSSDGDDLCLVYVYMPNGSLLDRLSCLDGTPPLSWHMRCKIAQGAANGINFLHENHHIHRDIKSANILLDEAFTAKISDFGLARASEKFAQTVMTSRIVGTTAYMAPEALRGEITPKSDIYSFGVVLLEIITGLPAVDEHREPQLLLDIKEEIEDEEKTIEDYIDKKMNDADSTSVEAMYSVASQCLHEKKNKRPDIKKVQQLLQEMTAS
Procedure, shortened: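 THP-1 cells (2×10^5/well) were treated with 5-fold serial compound dilutions for 24 h at 37 °C, then lysed with proteasome/phosphatase inhibitors. IRAK4 was detected by Western blot with chemiluminescence and semi-quantified by densitometry. DC50 came from the concentration–response.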

[2] = tested on: LPS/IL-1β-induced IL-6 secretion in human peripheral blood mononuclear cells (PBMCs); test: Inhibition of LPS/IL-1β-induced IL-6 secretion in human PBMCs (IL-6 ELISA); assay type: cell-based; conditions: PBMC, LPS 10 ng/mL + IL-1β 20 ng/mL, 24 h pre-incubation, 20 h stimulation
Procedure, shortened: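 PBMCs preincubated 24 h at 37 °C with compounds (5-fold dilutions from 1 μM) in RPMI/10% FBS, then stimulated 20 h with LPS 10 ng/mL plus IL-1β 20 ng/mL (final). IL-6 in 200-fold diluted supernatant measured by ELISA at OD450 against a standard curve; IC50 from dose-response fitting.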

[3] = tested on: R848-induced IL-6 secretion in human peripheral blood mononuclear cells (PBMCs); test: Inhibition of R848-induced IL-6 secretion in human PBMCs (IL-6 ELISA); assay type: cell-based; conditions: PBMC, R848 2.5 μg/mL, 20 h pre-incubation, 24 h stimulation
Description: This experiment was carried out in RPMI 1640 medium containing 10% FBS and 1% penicillin/streptomycin, with each of the compounds at an initial test concentration of 1 μM. The compound was dissolved in DMSO to prepare a stock solution, which was serially diluted into a series of working solutions with a 4-fold concentration gradient using the culture medium and then added to a 96-well plate at 10 μL per well. PBMCs (Batch No.: P122101102C; Milecell Biotechnology Inc.) were counted and diluted to a cell concentration of 1.25×10^6 cells/mL, and then added to the aforementioned compound-containing 96-well plate at 160 μL per well. The system was mixed well and incubated in a 5% CO2 incubator at 37° C. for 20 h. Then 10 μL of R848 (final concentration: 2.5 μg/mL) was added, and the culture was continued for 24 h in a 5% CO2 incubator at 37° C. After incubation, the 96-well plate was centrifuged at 2000 rpm for 4 min. The supernatant was collected and diluted 120-fold, then detected using an IL-6 ELISA kit. The OD450 values were read, and converted to IL-6 concentrations based on a standard curve.

IMQ psoriasis model = test: IMQ (imiquimod)-induced psoriasis model; assay type: in vivo, BALB/c mice; conditions: Mean ± SD, n = 7; for PASI Score d 6: Model 8.85 ± 1.66; for ΔSkin Thickness Change (μm) d 6: Model 80.95 ± 6.16
Description: Male BALB/c mice, aged 6-8 weeks, were randomly divided into 9 groups after 1 week of acclimatization: blank control group, imiquimod model group (IMQ group, corresponding to the model groups in FIGS. 1 and 2), clobetasol propionate cream group (CLO group), TYKI (BMS-986165) group, IRAK4 protein degrader KT-474 (from patent WO2020113233) group (100 mg/kg), and the compound of the present disclosure (at an appropriate dose), with 6-7 mice in each group. One day before modeling, the hair on the backs of the mice was removed with depilatory cream, with a depilated area of 2×2 cm^2. On the day of modeling, IMQ cream was used for modeling, and the corresponding drugs were administered intragastrically for treatment. The compound of the present disclosure (at an appropriate dose) was administered intragastrically once daily, and IMQ cream was applied to the hairless area on the back and left ear of mice 2 h after the first administration. […] The blank group and the IMQ group were administered with vehicle intragastrically twice daily (in the morning and evening), with an 8-h interval between the two intragastric administrations. At 2 h after the first intragastric administration, vaseline and IMQ cream were applied topically to the depilated back and ears of the mice, respectively. The dosage of IMQ cream administered to the depilated area on the back and the left ear was 80 mg and 10 mg, respectively, and the mice in each group were administered the cream for 5 consecutive days.
Reference was made to the Psoriasis Area and Severity Index (PASI) scoring criteria. The psoriasis, erythema, and thickness of skin lesions on the back were scored from 0 to 4 every morning from day 1 of modeling, with the scoring criteria as shown in Table 28. The 3 were added up to obtain a total score, i.e., a total PASI score. The ear thickness of the left ear of the mouse was measured using a digital vernier caliper three times every morning from day 1 of modeling, to obtain a mean value.

[4] = tested on: DSS-induced enteritis model; test: DSS-induced enteritis (colitis) model; assay type: in vivo, mice; conditions: po, QD, Model 10.33 ± 1.11, Mean ± SD, n = 7
Excerpt: The experimental mice were pre-acclimatized in the animal facility for one week; at the beginning of the experiment, the mice were given medication intragastrically daily according to their body weight. After the completion of intragastric administration in each group, mice had direct access to water bottles for free drinking. The blank group received normal water, while the other groups received pre-prepared DSS water. Each afternoon, the mice's abdomens were massaged to stimulate defecation, and one fecal pellet was collected onto a white porcelain plate. Fecal consistency was judged and recorded according to Table 30. The fecal occult blood qualitative test kit (Yuanye Biotechnology, #R24187-300T) was used to test for occult blood in feces and the results were interpreted according to Table 31.

| Compound | half-life at 1 µM [1] | DC50 (IRAK4) | IC50 [2] | also measured |
| --- | --- | --- | --- | --- |
| CN(C)c1cc2nn(C3CCN(C[C@H]4CC[C@H](n5cc6cc(C7CCC(=O)NC7=O)c(F)cc6n5)CC4)CC3)cc2cc1NC(=O)c1cnn2cccnc12 (some centres unmarked) [TM-8] |  | 3.58 nM | 0.84 nM | Human liver microsome (t1/2, min) [1]: 145 min |
| CN(C)c1cc2nn([C@H]3CC[C@H](CN4CCC(n5cc6cc(F)c(C7CCC(=O)NC7=O)cc6n5)CC4)CC3)cc2cc1NC(=O)c1cnn2cccnc12 (some centres unmarked) [TM-6] | 124 min | 0.7 nM | 1.15 nM |  |
| CCC(=O)O[C@]1(C(=O)CCl)[C@@H](C)C[C@H]2[C@@H]3CCC4=CC(=O)C=C[C@]4(C)[C@@]3(F)[C@@H](O)C[C@@]21C [CLO, Clobetasol propionate, reference compound] |  |  |  | PASI Score d 6 (IMQ psoriasis model; 160 mg/animal): 1.17 ± 0.85; ΔSkin Thickness Change (μm) d 6 (IMQ psoriasis model; 160 mg/animal): −18.10 ± 6.33 μm |
| CN(C)c1cc2nn([C@H]3CC[C@H](CN4CC[C@H](n5cc6cc(C7CCC(=O)NC7=O)c(F)cc6n5)[C@H](F)C4)CC3)cc2cc1NC(=O)c1cnn2cccnc12 (some centres unmarked) [TM-132] | 93.1 min | 0.31 nM | 3.52 nM | IC50 [3]: 7.83 nM |
| Deucravacitinib [TYKi, reference compound] |  |  |  | PASI Score d 6 (IMQ psoriasis model; 30 mg/kg, BID): 4.32 ± 2.42; ΔSkin Thickness Change (μm) d 6 (IMQ psoriasis model; 30 mg/kg, BID): 53.57 ± 15.87 μm |
| CN(C)c1cc2nn([C@H]3CC[C@H](CN4CC[C@H](n5cc6cc(F)c(C7CCC(=O)NC7=O)cc6n5)[C@H](F)C4)CC3)cc2cc1NC(=O)c1cnn2cccnc12 (some centres unmarked) [TM-136] | 101 min | 1.71 nM | 6.63 nM |  |

More lines, main results first:

| half-life at 1 µM [1] | DC50 (IRAK4) | Compound | IC50 [2] | also measured |
| --- | --- | --- | --- | --- |
| 104 min | 1.09 nM | CN(C)c1cc2nn([C@H]3CC[C@H](CN4CC[C@@H](n5cc6ccc(C7CCC(=O)NC7=O)cc6n5)[C@H](F)C4)CC3)cc2cc1NC(=O)c1cnn2cccnc12 (some centres unmarked) [TM-152] | 9.43 nM |  |
| 114 min | 3 nM | CN(C)c1cc2nn([C@H]3CC[C@H](CN4CC[C@H](n5cc6cc(C7CCC(=O)NC7=O)c(F)cc6n5)[C@@H](F)C4)CC3)cc2cc1NC(=O)c1cnn2cccnc12 (some centres unmarked) [TM-134] | 2.59 nM |  |
|  | 2.76 nM | CN(C)c1cc2nn([C@H]3CC[C@H](CN4CCC(n5cc6cc(N7CCC(=O)NC7=O)ccc6n5)CC4)CC3)cc2cc1NC(=O)c1cnn2cccnc12 [TM-3] | 0.39 nM | IC50 [3]: 3.53 nM; Human liver microsome (t1/2, min) [1]: 145 min |
| 92.3 min | 9.41 nM | CN(C)c1cc2nn([C@H]3CC[C@H](CN4CC[C@@H](n5cc6cc(F)c(C7CCC(=O)NC7=O)cc6n5)[C@H](F)C4)CC3)cc2cc1NC(=O)c1cnn2cccnc12 (some centres unmarked) [TM-137] | 2.4 nM |  |
| 138 min |  | CN(C)c1cc2nn([C@H]3CC[C@H](CN4CCC(n5cc6c(F)cc(C7CCC(=O)NC7=O)cc6n5)CC4)CC3)cc2cc1NC(=O)c1cnn2cccnc12 (some centres unmarked) [TM-233] | 0.83 nM | IC50 [3]: 3.34 nM |
| 91 min |  | CN(C)c1cc2nn([C@H]3CC[C@H](CN4CC[C@H](n5cc6cc(F)c(C7CCC(=O)NC7=O)cc6n5)[C@@H](F)C4)CC3)cc2cc1NC(=O)c1cnn2cccnc12 (some centres unmarked) [TM-138] | 6.96 nM |  |
|  | 8.45 nM | CN(C)c1cc2nn([C@H]3CC[C@H](CN4C[C@@H](F)[C@H](n5cc6c(F)cc(N7CCC(=O)NC7=O)cc6n5)C4)CC3)cc2cc1NC(=O)c1cnn2cccnc12 [TM-221] | 1.88 nM | IC50 [3]: 7.1 nM; DAI Score d 8 ([4]; 3 mpk): 4.43 ± 1.68; DAI Score d 8 ([4]; 10 mpk): 3.00 ± 1.07; DAI Score d 8 ([4]; 30 mpk): 2.57 ± 2.50 |
| 107 min | 1.6 nM | CN(C)c1cc2nn([C@H]3CC[C@H](CN4CC[C@@H](n5cc6cc(C7CCC(=O)NC7=O)c(F)cc6n5)[C@H](F)C4)CC3)cc2cc1NC(=O)c1cnn2cccnc12 (some centres unmarked) [TM-133] | 3.55 nM |  |
